Measured values: US6514967B1 (priority 1997, dated 2003)

Key:
[1] = system: release of free radicals induced by glutamate in the striatum; experiment: In vivo intracerebral perfusion (striatum microdialysis), generation of radicals by injection of glutamate; conditions: 1 mM in perfusion medium
Excerpt: C) tests in vivo on intracerebral perfusion and generation of radicals by injection of glutamate.
Experimental preparation: [J. Neurosci. Methods, 72 (1997) 123-135]
The animals used are male rats of the Wistar strain weighing 250 g. Under general anaesthesia, the animals are placed in a stereotaxic apparatus. A cannula guide is introduced by microsurgery into the striatum (coordinates A : +0.02 cm; L: −0.30 cm and H: −0.65 cm relative to the 0 point defined according to Paxinos and Watson). Three to four screws are arranged on the animal's skull and the whole is fixed with dental cement (Durelon). After a recovery period during which the animals become used to the tester, a CMA 12 microdialysis cannula is inserted in the guide in such a way that the cellophane membrane projects 2 mm into the brain tissue. All the perfusions are effected on animals that are awake. A physiological solution (NaCl: 140 mM; KCl: 5 mM; […]: 3.9 mM), to which 250 μM of Na salicylate is added extemporaneously, is injected into the system at a constant flow rate of 1 μl.min^−1. […]
Salicylic acid present in the perfusion fluid reacts with the OH radicals released at the perfusion site, forming a compound, 2,3-dihydroxybenzoic acid (2,3-DBHA), which is specific to this reaction. This reaction product is quantified in each sample by high-performance liquid chromatography followed by Electrochemical Detection. […]

astrocytes = experiment: Recapture of glutamate by cultures of astrocytes, radicals generated by xanthine/xanthine oxidase (X/XO); type: cell-based, rats
Protocol: B) Procedure with cultures of astrocytes and generation of radicals by the xanthine/xanthine oxidase (X/XO) pair
400 μl of D-lysine at 25 μg/ml (9 ml of D-lysine at 100 μg per ml of borate buffer (0.1M pH 8.4)+27 ml of water) is placed in each well of 24-well culture plates. The wells are left in the stove (5% CO2, 37° C.) over night. Each well is rinsed with 2 times 750 μl of Hanks before receiving the culture medium. 3 lateral demi cortices are taken from rats aged 1 to 2 days. (The hippocampus, the striatum and the meninges are removed). The demi cortices are placed in 2 ml of trypsin-EDTA then put in the stove for 30 min. The action of the trypsin is stopped with 10% of decomplemented foetal calf serum (200 μl). The serum and the trypsin are removed then the cells are dissociated with a pipette in 10 ml of medium (MEM 225 ml+FCS-D 25 ml+glucose 20% 7.5 ml) (MEM=minimum essential medium; FCS-D=decomplemented foetal calf serum). The culture medium is made up to 30 ml, stirred and placed at 400 μl per well. The medium is changed twice weekly for 18 days. The last replacement is effected 4 days prior to the treatment, with a medium without decomplemented foetal calf serum. (MEM 31.5 ml+glucose 20% 1.05 ml).
Treatment takes place on the 18th or 19th day.
Each well is washed with 750 μl of buffer (NaCl 124 mM, KCl 4.6 mM, CaCl2 1.2 mM, MgCl2 1.3 mM, KH2PO4 0.416 mM, NaHCO3 26.75 mM, glucose 10 mM; pH 7.4) for 10 min. The cells are incubated in the presence of xanthine (500 μM) and of the test product (from 0 to 1 mM). After 10 min, xanthine oxidase is added (50 mU/ml) and it is again left to incubate for 10 min. Release of radicals is stopped by washing 3 times with catalase (3000 U/ml). The glutamate is then recaptured in a solution of radioactive glutamate (^3H) at 40 μM (isotopic dilution 1/20000). Recapture is stopped by washing 3 times with the cold buffer. The cells are detached with soda 0.2N and the radioactivity is measured.
Firstly we checked that the inhibition of recapture observed in the presence of X/XO is indeed due to a radical process. For this we replaced the test products with two enzymes: SOD (SuperOxide Dismutase) and catalase (FIG. 1). […] The Fenton reaction converting hydrogen peroxide to OH• is thus short-circuited. […] However, as there seems to be sufficient reducing agent in the medium to promote the formation of H2O2 starting from O2^•^−, it appears likely that a substantial proportion of H2O2 gives OH• (a highly reactive radical).
FIGS. 3 to 8 are the mean of at least 4 independent tests in which the protective power of IC180, IC023, IC241, IC2-16, IC178, IC140, IC209, IC237, IC146, IC193, IC194, IC242, IC207, IC2-19, IC219, IC2-21, and IC249, as a function of the dose, was tested against a fixed concentration of radicals, and therefore of X/XO. In the case of IC180, the increase in recapture appears to be linear (up to 100% is found in some tests). […] Since IC023 alone only becomes “toxic” starting from 1 mM, the variation observed starting from 0.6 mM might reflect the existence of metabolites that are poorly tolerated by the cells. The derivative morpholine IC180 is more interesting.

c1cc2c(s1)CCCC2N1CCOCC1 (stereo not shown) [IC180, morpholine-4-tetrahydro-4,5,6,7-benzothiophene]
release of free radicals induced by glutamate (2,3-dihydroxybenzoic acid) ([1]; striatum, awake rats, 1.5 mM Na glutamate, FIG. 9): Blocking | toxic side effect of introduction in situ ([1]; response restored a week later): did not have a toxic side effect | increase in recapture of glutamate, highest found (astrocytes; fixed concentration of X/XO, dose-dependent, found in some tests): up to 100% | effect of the product alone on recapture (astrocytes; without the presence of X/XO): no effect on recapture
